Laboratory results published in patent EP1635833B1 (priority 2003, dated 2004).
Read-outs that look alike come from different tables or passages of the source.

Tests used:
[1] = tested on: acetone-induced lifting behaviour; test: Tolerance in a chronic neuropathic pain model (CCI gerbils, acetone spray test); format: in vivo; conditions: 11 days
[2] = tested on: opioid-induced PCO2 increases; conditions: in vivo
[3] = tested on: opioid-induced PCO2 increases; conditions: guinea pig, in vivo
[4] = tested on: opioid-induced PCO2 increases; conditions: rat, in vivo
[5] = tested on: ricinus oil-induced diarrhea; conditions: in vivo
[6] = tested on: ricinus oil-induced diarrhea; conditions: rat, in vivo
charcoal propulsion [7] = conditions: in vivo
[8] = tested on: ricinus oil-induced diarrhea; test: whole plant or invertebrate; conditions: in Meriones unguiculatus, sc, 8 h, read-out: ED50 to postpone the ricinus oil-induced diarrhea
charcoal propulsion [9] = test: animal or person; format: in vivo, rats; conditions: Rattus norvegicus, sc, read-out: ED50 for an inhibition of charcoal propulsion (<60 %)
[10] = tested on: ricinus oil-induced diarrhea; test: whole plant or invertebrate; conditions: in Rattus norvegicus, sc, 4 h, read-out: ED50 to postpone the ricinus oil-induced diarrhea

Cc1cccc(C)c1NC(=O)CN1CCN(C2CCN(C(=O)c3cc(C(F)(F)F)cc(C(F)(F)F)c3)C(Cc3ccccc3)C2)CC1 (single isomer, unassigned; (+)) [Compound 95, (+)-(B)-trans-4-[1-[3,5-bis(trifluoromethyl)benzoyl]-2-(phenylmethyl)-4-piperidinyl]-N-(2,6-dimethylphenyl)-1-piperazine acetamide, (L)-malic acid (1:1)]
acetone-induced lifting behaviour ([1]; 2.5 mg/kg Compound 95 i.p. twice daily alone): limited activity | acetone-induced lifting behaviour, activity over time ([1]; 2.5 mg/kg Compound 95 with 2.5 mg/kg morphine i.p. twice daily): the activity remained present over the entire testing period | reduction of the frequency of retches, vomiting and periods of emesis (morphine-induced emesis; at 0.4 mg/kg morphine (submaximal dose)): non-significant tendency | doses with activity on periods of emesis (morphine-induced emesis; at 0.8 mg/kg morphine): ≥ 2.5 mg/kg | number (frequency) of vomits (morphine-induced emesis; at 0.8 mg/kg morphine, 10 mg/kg Compound 95 i.p.): diminished significantly | number of retches (morphine-induced emesis; at 0.8 mg/kg morphine, doses of 10 and 40 mg/kg i.p. Compound 95): significantly reduced | PCO2 values [2]: no effects were observed | opioid-induced PCO2 levels [2]: significant decreases | PCO2 values [3]: did not affect PCO2 values | opioid-induced PCO2 levels [3]: reductions in the opioid-induced PCO2 levels | number of animals reaching high (>50 mm Hg) levels of PCO2 [4]: reduced | PCO2 levels ([4]; sc, 40 mg/kg): did not affect the PCO2 levels | effect of adding Compound 95 on the ED50s of the opioids [5]: did not alter | effects on constipation [5]: minimal effects | effect of adding Compound 95 on the ED50s of the opioids [6]: did not alter | effects on constipation [6]: minimal effects | effect of adding Compound 95 on the outcome of the opioids (charcoal propulsion [7]): did not affect the outcome of the opioids | inhibition of the charcoal propulsion (charcoal propulsion [7]): inactive

COc1ccc2c3c1O[C@H]1[C@@H](O)C=C[C@H]4[C@@H](C2)N(C)CC[C@@]341 [Codeine, codeine]
inhibition of the ricinus oil -induced diarrhea [5]: dose-dependent inhibition | ED50 [8]: 1.67 mg/kg

CN1CC[C@]23c4c5ccc(O)c4O[C@H]2[C@@H](O)C=C[C@H]3[C@H]1C5 [Morphine, morphine]
ED50 (charcoal propulsion [9]): 1.66 mg/kg | doses causing central side-effects (morphine-induced emesis; in vivo, ip): > 0.8 mg/kg | PCO2 ([3]; sc): increase in PCO2 | levels of Pco2 [4]: increased levels of Pco2 | inhibition of the ricinus oil -induced diarrhea [5]: dose-dependent inhibition | inhibition of the ricinus oil -induced diarrhea [6]: dose-dependent inhibition | ED50 [10]: 2.19 mg/kg

COc1ccc2c3c1O[C@H]1C(=O)CC[C@@]4(O)[C@@H](C2)N(C)CC[C@]314 [Oxycodone, oxycodone]
inhibition of the ricinus oil -induced diarrhea [5]: dose-dependent inhibition
